Experimental data published in article PMC10056348, “Photocaged Histone Deacetylase Inhibitors as Prodrugs in Targeted Cancer Therapy” (Pharmaceuticals, 2023).

Legend:
A2780 cell line = experiment: MTT cell viability assay, A2780; type: cell-based, human
Method: (§1) The amelanotic melanoma cell line MV-3 was obtained from EPO GmbH Berlin-Buch. The human ovarian carcinoma cell line A2780 was obtained from the European Collection of Cell Cultures (ECACC, Salisbury, UK). The cell lines were cultivated in RPMI 1640 medium supplemented with 10% fetal bovine serum and 50 U/mL penicillin and 50 µg/mL streptomycin and incubated at 37 °C under humidified air with 5% CO2 to 80–90% confluency before being used in further assays.
(§2) For this, 200-fold dilution series of the compounds of the respective stock solutions in DMSO (10 mM) were prepared in DMSO using clear U-bottom 96-well microplates (Greiner Bio-One, Greiner AG, Kremsmünster, Austria). Predilutions intended for photolysis experiments were irradiated for 10 min in the UV reactor described above. Thereafter, all predilutions were further diluted 1:200 in medium and provided in clear sterile F-bottom 96-well plates (Starlab GmbH, Hamburg, Germany). MV-3 cells were added at a density of 3000 cells/well and A2780 cells at a density of 8000 cells/well. The cells were added directly and without prior attachment. Final volume was 200 µL, and the final DMSO concentration was 0,5%. After 72 h, 40 µL MTT (3-(4,5-dimethylthiazol-2-yl)-2,5-diphenyltetrazolium bromide; BioChemica, Applichem GmbH, Darmstadt, Germany ) solution (5 mg/mL in phosphate-buffered saline) was added to determine cell survival. The formazan dye was dissolved in DMSO (Sigma-Aldrich, Steinheim, Germany) after 1 h, and absorbance was measured at 570 nm and 690 nm using a Multiskan microplate photometer (Thermo Fisher Scientific, Waltham, MA, USA). Concentration-effect curves were generated using the four-parameter logistic equation (GraphPad Prism 9.0, San Diego, CA, USA), and mean IC50 values were determined by nonlinear regression based on at least three distinct experiments in duplicates.

MV-3 cell line = experiment: MTT cell viability assay, MV-3; type: cell-based
Method: as §1, §2

[1] = system: acetyl-α-tubulin in MV-3 cells; experiment: Immunoblot of acetyl-α-tubulin (marker of HDAC6 inhibition); type: cell-based; conditions: 24 h, 3.1 µM
Method: MV-3 cells were seeded to cell culture flasks and cultured for 48 h. Aliquots of the DMSO stock solution (10 mM) designated for photolysis were irradiated for 10 min with the UV reactor (see Section 4.3). The cells were treated with the stock solutions, processed with or without irradiation, of the indicated concentration or vehicle (DMSO) for 24 h. Cell lysis was performed with Cell Extraction Buffer (10 mM Tris, pH 7.4, 100 mM NaCl, 1 mM EDTA, 1 mM EGTA, 1 mM NaF, 20 mM Na4P2O7, 2 mM Na3VO4, 1% Triton™ ×-100, 10% glycerol, 0.1% SDS, 0.5% deoxycholate; Catalog# FNN0011, Thermo Fisher Scientific Inc., Waltham, MA, USA) and addition of Halt Protease Inhibitor Cocktail (100×) (Catalog# 78429, Life Technologies GmbH Carlsbad, CA, USA) and phenylmethanesulfonyl fluoride (Catalog# 10837091001, Sigma-Aldrich, St. Louis, MO, USA) according to manufacturer instructions. Protein content was determined by Pierce™ BCA Protein Assay Kit (Catalog# 23225, Thermo Fisher Scientific Inc., Waltham, MA, USA) according to manufacturer guidelines. Samples were denatured by Laemmli 2× Concentrate (Catalog# S3401-10VL, Sigma-Aldrich, St. Louis, MO, USA), and Precision Plus Protein Unstained Standard was used as molecular weight marker (Catalog# 1610363, Bio-Rad, Hercules, CA, USA). SDS-PAGE was performed with 10% Mini-PROTEAN TGX Stain-Free Gel at 200 V for 50 min (Catalog# 458035, Bio-Rad, Hercules, CA, USA). Afterwards, proteins were transferred with the Trans-Blot Turbo Transfer System (Catalog# 1704150, Bio-Rad, Hercules, CA, USA) to Immobilon-FL PVDF membranes (Catalog# IPFL00005, Millipore Merck, Burlington, MA, USA) at 1.0 A for 30 min and incubated with 5% milk-powder solution for 1 h at room temperature under slight agitation. Subsequently, the membranes were incubated with anti-acetyl-histone H3 (Catalog# 9677S, Cell Signaling Technology, Denver, MA, USA), anti-acetyl-α-tubulin (Catalog#5335, Cell Signaling Technology, Denver, MA, USA), and anti-GAPDH (Catalog# T0004, Affinity Biosciences, Cincinnati, OH, USA) in 1:1000–1:10000 dilutions at 4 °C, overnight. […]

[2] = system: caspase 3/7 in A2780 cells; experiment: Caspase-Glo 3/7 assay; type: cell-based, human; conditions: A2780, 0.5 µM, 24 h
Method: A2780 cells (8000 cells/well) were seeded in white sterile 96-well plates (ThermoFisher Scientific, Waltham, MA, USA, #136102). Dilutions (500 µM) in DMSO were prepared from the respective stock solutions in DMSO (10 mM). Predilutions used for photolysis experiments were irradiated in clear U-bottom 96-well microplates (Greiner Bio-One, Greiner AG, Kremsmünster, Austria) for 10 min in the UV reactor described above. Vehicle control (DMSO) or compounds, at a concentration of 0.5 µM, were added to the cells. The cells were then incubated for 24 h under standard culture conditions. The final volume was 100 µL, and the final DMSO concentration was 0.1%. After 24 h, cells were subsequently incubated with Caspase-Glo 3/7 substrate (Promega, Madison, WI, USA, #G8091) for 1 h at 25 °C, according to the manufacturer´s protocol. Luminescence was detected at 25 °C using a Spark microplate reader (Tecan Group AG, Maennedorf, Swiss). Two independent experiments were performed in triplicates.
GraphPad Prism (GraphPad Software, San Diego, CA, USA) was used to perform statistical analysis. Normality of the data was assessed using Shapiro–Wilk’s and Kolmogorov–Smirnov tests. To determine statistical differences between means, a one-way analysis of variance (ANOVA) was performed. If the difference was significant (p < 0.05), the mean of each column was compared to the mean of the control and corrected for multiple comparisons using Dunnett’s post-hoc test. Differences were considered statistically significant at * p < 0.05, ** p < 0.01, *** p < 0.001.

[3] = MTT, 72 h, without UV irradiation

| Structure (SMILES) | IC50 (A2780 cell line; Homo sapiens, A2780, light or radiation study, MTT, 72 h, without UV irradiation) [nM] | IC50 (MV-3 cell line; MV-3, light or radiation study, MTT, 72 h, without UV irradiation) [nM] | level of acetylated α-tubulin ([1]; without UV irradiation) | activation of caspase 3/7 ([2]; without UV) | IC50 (A2780 cell line; Homo sapiens, A2780, light or radiation study, MTT, 72 h, after UV irradiation (365 nm, 10 min)) [nM] | inhibition at 25 µM (A2780 cell line; Homo sapiens, A2780, light or radiation study, at 25 µM, without UV irradiation) [%] | IC50 (A2780) (A2780 cell line; [3]) | IC50 (MV-3) (MV-3 cell line; [3]) | IC50 (MV-3 cell line; MV-3, light or radiation study, MTT, 72 h, after UV irradiation (365 nm, 10 min)) [nM] | inhibition at 25 µM (MV-3 cell line; MV-3, light or radiation study, at 25 µM, without UV irradiation) [%] | level of acetylated α-tubulin ([1]; after UV irradiation (365 nm, 10 min)) | activation of caspase 3/7 ([2]; + UV (365 nm, 10 min)) |
| --- | --- | --- | --- | --- | --- | --- | --- | --- | --- | --- | --- | --- |
| CN(C)c1ccc(C(=O)N(CC(=O)NCc2ccccc2)Cc2ccc(C(=O)NO)cc2)cc1 [I, N-[2-(benzylamino)-2-oxoethyl]-4-(dimethylamino)-N-[4-(hydroxycarbamoyl)-benzyl]-benzamide] | 249 ± 84.7 | 616 ± 161 | strong hyperacetylation | significant activation of caspase 3/7 |  |  |  |  |  |  |  |  |
| COc1cc(CONC(=O)c2ccc(CN(CC(=O)NCc3ccccc3)C(=O)c3ccc(N(C)C)cc3)cc2)c([N+](=O)[O-])cc1OC [pc-I, N-[2-(Benzylamino)-2-oxoethyl]-N-(4-{[(4,5-dimethoxy-2-nitrobenzyl)oxy]carbamoyl}benzyl)-4-(dimethylamino)benzamide] |  |  | no increased levels of acetylated α-tubulin | inactive | 428 ± 62.5 | < 25 | n.e. ^b (n.e— no effect: <25% inhibition at 25 µM) | n.e. ^b (n.e— no effect: <25% inhibition at 25 µM) | 727 ± 133 | < 25 | increased level of acetyl-α-tubulin | significant activation of caspase 3/7 |
